Results taken from US20100098640A1, “Multidentate Pyrone-Derived Chelators for Medicinal Imaging and Chelation” (priority 2005, published 2010).

Assays:
Type in all cases: physicochemical
[1] = Protonation constants of free ligands by potentiometric titration; settings: 1.0 M aqueous NaCl, ligand ~0.5 mM
Method: Thermodynamic evaluation of the new ligands can include potentiometric determination of the ligand protonation constants and spectrophotometric evaluation of the Gd^3+, Ca^2+, and Zn^2+ stability constants. In order to determine the stability of these ligands with Gd^3+, first the protonation constants for each ligand is determined. The protonation constants can be measured by potentiometric titration and the assignment of these protonations can be made using ^1H NMR titrations. ^1H NMR titration experiments use changes in the chemical shift of the non-exchangeable protons on the ligand to assign the sites of protonation; data is plotted as chemical shift vs. pD.
The experimental protocols and equipment used have been previously described (Johnson, A. R., et al. Inorg. Chem. 2000, 39, 2652). To determine the protonation constants of the free ligands, approximately 15 mg of ligand was dissolved in 50 mL of a 1.0 M aqueous solution of NaCl in a titration vessel (ligand concentration ˜0.5 mM). Protonation constants of TRENMAM and TREN-Me-MAM were examined by potentiometric (pH vs total proton concentration) titrations by using Hyperquad (Gans, P. et al. Talanta 1996, 43, 1739) for data analysis. Each protonation constant determination is the result from at least three experiments (where each experiment consists of two titrations, the first one titrated with acid, followed by a reverse titration with base). The equilibration time between additions of titrant was 90 seconds.

[2] = Competition batch titration with DTPA (pGd); settings: pH 7.4, 24 h equilibration, three titrations
Excerpt: The affinity of these ligands for protons and metal ions in solution is described in terms of formation constants. The protonation of a metal complex can be subsequently calculated from the appropriate cumulative constants. The stability of metal complexes can be discussed in terms of the pM value (in this case pGd) which is expressed as
Although a pM value can be calculated under various conditions (e.g. different pH's or relative concentrations), in the context of a biological scenario the following parameters are commonly used for comparison: [M]=1 μM, [L]=10 μM, and pH=7.4.
The stability of the heteropodate ligands with Gd^3+, Ca^2+, and Zn^2+ can be measured by spectrophotometric titration. The strong UV absorptions (π→π*) of the pyrone rings of the ligands can be monitored in order to follow the complexation reaction (FIG. 2). The titration can be performed in a batch mode, collecting between 20-40 spectra, monitored between 200-500 nm for each titration of a ligand in the presence of an equal molar amount of Gd^3+, Ca^2+ or Zn^2+. […]

[3] = Aqueous solubility

Compound	log K1 (protonation constant) [1]	log K2 (protonation constant) [1]	log K3 (protonation constant) [1]	log K4 (protonation constant) [1]	pGd [2]	water solubility compared to the TREN-Me-MAM ligand [3]
tris(aminoethyl)amine)methylmaltolamide [TREN-Me-MAM]	7.91(1)	6.30(2)	5.48(2)	4.46(2)	19.03±0.04	–
O=C(NCCN(CCNC(=O)c1occc(=O)c1O)CCNC(=O)c1occc(=O)c1O)c1occc(=O)c1O [TRENMAM]	7.33(1)	5.76(1)	4.97(2)	3.84(2)	19.27±0.08	improved water solubility
